In series [1] the test system is PC12 cells. The experiment in a line: NGF-mimic activity: neurite outgrowth in PC12 cells. It is filed as cell-based. The conditions noted are these: 48 h. Here is the method: The neurogenic activity of samples was evaluated according to the methods described in our previous study. Briefly, approximately 5 × 10^4 cells were seeded in each well of a 24-well microplate and were cultured under a humidified atmosphere with 5% CO2 at 37 °C for 24 h. Then, the medium in each well was replaced with 1 mL of serum-free DMEM containing 40 ng/mL NGF as a positive control, 0.5% DMSO as a negative control, and the test sample after 24 h, respectively. About 100–200 cells of each well were counted from a randomly selected area and repeated thrice after 48 h. A cell-bearing neurite outgrowth longer than the diameter of the cell body was identified as a positive cell. The activity was presented as the percentage of positive cells in the selected area.
In the inhibitor experiment of NGF-mimic activity, approximately 5 × 10^4 PC12 cells were seeded into each well of a 24-well plate and incubated for 24 h. After that, the medium in each well was replaced with 500 μL of serum-free DMEM or the serum-free DMEM containing VER155008, the inhibitor of Hsc70 protein, incubated in a CO2 incubator for 30 min. Subsequently, 500 μL of serum-free DMEM containing different samples was added and cultured, respectively. The PC12 cells with neurite outgrowth were recorded after 48 h. For the Western blot analysis, the experiment included five groups, namely the control (C) group, the NGF (40 ng/mL) group, the TBG096 (1 µM) group, the VER155008 (3 µM) group, and the VER155008 (3 µM) + TBG096 (1 µM) group. Afterwards, approximately 2 × 10^6 cells per dish were seeded into ten 6 cm Petri dishes with 5 mL of DMEM medium and incubated for 24 h. After giving different treatments with samples, the cells continued to culture for 4 h. Protein extraction was conducted to prepare for the subsequent Western blot analysis.

Series [2] can be described thus: Pharmacokinetic analysis of plasma in SD rats. Conditions: female, Sprague-Dawley, rat; for half-life: 14 mg/kg. The class given is in vivo. Here is the method: In the pharmacokinetic analysis, a total of 23 female SD rats aged 8 weeks from Zhejiang Academy of Medical Sciences (Hangzhou, China) (permit number: ZJU20240191) were used. A total of 15 rats were randomly divided into the following groups: (i) control group, (ii) TBG096 (14 mg/kg) oral administration group, and (iii) TBG096 (14 mg/kg) intravenous administration group. TBG096 was administered orally (dissolved in soybean oil) or intravenously (dissolved in Milli-Q water containing 2% Tween 80 and 5% ethanol) at 14 mg/kg after 12 h of fasting. Then, the blood from the posterior ocular venous plexus of rats was taken at 5, 15, 30, 60, 90, 120, 180, and 240 min after administration. A total of eight rats were randomly divided into two groups for taking brain samples: (i) control group and (ii) TBG096 (14 mg/kg) oral administration group.
The collected blood was placed in a centrifuge tube (containing 20 µL heparin sodium solution) and centrifuged at 3000 rpm for 10 min to obtain a supernatant (plasma). Brain samples were collected after the oral administration of 14 mg/kg TBG096 and heart perfusion with PBS. Then, 10 µL of 10% formic acid and 10 µL of internal standard (10 ng/µL) were added to 200 µL of plasma (compound 2 was used as internal standard) or 0.2 g of brain sample (compound 4 was used as internal standard) and vortexed for 10 s and then left at −80 °C overnight. Next, 600 µL or 3 mL of extraction solvent (isopropanol) was added to plasma or brain samples, vortexed for 5 min, left at −30 °C for 2 h, and then centrifuged at 12,000 rpm for 15 min. Next, the upper organic phase was transferred to another tube, centrifuged, and concentrated to dryness. The residue was dissolved in 100 µL of mobile phase, vortexed for 0.5 min, and centrifuged at 12,000 rpm for 3 min, and the supernatant was then prepared for HPLC analysis (Supersil Phenyl 5 µm (4.6 × 200 mm), elution with MeCN/H2O containing 0.1% formic acid (plasma samples: 57% MeCN/H2O, brain samples: 56% MeCN/H2O) for 30 min, flow rate: 1 mL/min, sample size: 20 µL, detected at 284 nm) and HR ESI-TOF-MS analysis.

Series [3] has as its system ICR mice. The experiment in a line: Acute toxicity experiment in mice. It is filed as in vivo. The protocol:
In the acute toxicity experiment of mice, a total of 40 ICR male mice aged 8 weeks from Zhejiang Academy of Medical Sciences (Hangzhou, China) were used. A standard experimental scheme was adopted according to the requirements of Zhejiang University Animal Experiment Ethics Committee (animal use license number: SYXK(Zhe)2019-0002, permit number: ZJU20230219). The mice were randomly divided into the following groups: (i) control group, (ii) TBG096 100 mg/kg group, (iii) TBG096 300 mg/kg group, and (iv) TBG096 600 mg/kg group. Each group had 10 mice. Soybean oil was used as a vehicle to dissolve TBG096. The body weight, food intake, and water consumption of mice in each group were recorded every day for two weeks. Blood was collected for biochemical index analysis.

These results are taken from publication PMC11943016, “TBG096 Ameliorates Memory Deficiency in AD Mouse Model via Promoting Neurogenesis and Regulation of Hsc70/HK2/PKM2/LAMP2A Signaling Pathway” (International Journal of Molecular Sciences, 2025).

Where two headings read alike, the source gives them in different places.

As for `O=C(SCCCCCCSCCCC(F)(F)F)c1cccc(O)c1O` [TBG096], in series [1] (0.3, 1, and 3 µM, listed as 3), the “percentage of PC12 cells exhibiting neurite growth” value was “superior activity”. The “NGF-mimic effect after treatment with VER155008 (Hsc70 inhibitor)” value in series [1] (PC12 cells) was “significantly diminished”. Also, in series [2] (14 mg/kg oral vs i.v., rats, read-out: absolute (oral) bioavailability), the bioavailability (in general, the share of a dose that reaches the circulation, judged against a reference dose that is usually intravenous) came to 36%. Further, the half-life in series [2] (iv, i.v. 14 mg/kg, rats, read-out: T1/2z) is 44.4 min; in series [2] (po, oral (i.g.) 14 mg/kg, rats, read-out: T1/2z (oral elimination half-life)), 111 min; in series [2] (po, oral, as restated in Discussion, read-out: half-life (converted)) it was 111 min. The AUC(0-inf) (as a rule, the area under the concentration-time curve extrapolated to infinity) was 2520 ng·h/mL in series [2] (iv, i.v. 14 mg/kg, rats) and 905 ng·h/mL in series [2] (oral (i.g.) 14 mg/kg, rats). Moreover, the AUC(0-t) (usually exposure summed from dosing to a finite time, without extrapolation to infinity) is 2470 ng·h/mL in series [2] (iv, i.v. 14 mg/kg, rats) and 707 ng·h/mL in series [2] (oral (i.g.) 14 mg/kg, rats). Further, the Cmax – broadly, the maximum level reached in the sampled fluid or tissue – in series [2] (iv, i.v. 14 mg/kg, rats) is 4700 ng/mL; in series [2] (oral (i.g.) 14 mg/kg, rats) it was 700 ng/mL. The Tmax (commonly the time at which the peak concentration occurs) was 5 min in series [2] (iv, i.v. 14 mg/kg, rats) and 15 min in series [2] (oral (i.g.) 14 mg/kg, rats). The “acute toxicity in mice” value in series [3] (mouse, in vivo) is recorded as “does not exhibit acute toxicity”. Also, in series [3] (oral 100, 300, and 600 mg/kg, two weeks, mice), the “body weight, food intake, water consumption” value was “no significant differences”. Besides, the “serum biochemical indices (AST, ALT, AST/ALT, ALB, DBIL)” value in series [3] (oral 100, 300, and 600 mg/kg, vs control group, mice) is recorded as “no significant changes”.
